{"source": "patent US5157052A", "about": "“Method for inhibiting IgE production” (priority 1990, dated 1992)", "tested_on": "IgE", "assay": "Serum IgE response induced by FF1-4D5 + H∂A1 anti-IgD antibodies (ELISA, Assay A / Assay F)", "type": "in vivo, mouse (Balb/c female)", "conditions": "20 μg days 3 and 4; for de novo IgE synthesis: Example 23; for IgE ± SD: Table 12, day 8 (control 11398)", "method": "Mouse hybridoma cells expressing either FF1-4D5 antibody or H∂A1 antibody are thawed, established in culture, and incubated in mice as ascite tumors. FF1-4D5 antibody is a mouse IgG2a monoclonal antibody of the b allotype that binds the Fd fragment of the ∂ chain of the a allotype IgD which activates β cells through antigen internalization and processing, promoting cognate interactions with antigen-specific T cells (D. K. Goroff et al., J. Immunol. 136: 2382 (1986)). H∂A1 antibody is a mouse IgG2b of the b allotype that binds the Fc fragment of the ∂ chain of the a allotype IgD which activates β cells through crosslinking IgD (I. M. Zitron and B. L. Clevinger, J. Exp. Med. 152: 1135 (1980)). Each antibody is purified from their respective ascites tumor fluid. […] Serum from the injected mice is recovered and the mean concentration of IgE determined.\nSerum levels of IgE are determined and IgE levels are shown to be inhibited in a dose dependent manner.\nELISA (enzyme linked immunosorbant assay) measurements of IgE are as follows. About 5 μg of B1E3 antibody in 100 μl borate buffered saline (pH8.5) is added to wells of a NuncImmulon II 96 well plate (DiRuscio & Assoc., St. Louis, Mo.) at 37° C. for 90 minutes. The non-bound antibody is removed by flicking the plate. Unreacted sites on the plastic plate are blocked by adding about 200 μl of a 2% solution of newborn bovine serum (NBS) in PBS at 37° C. for 60 minutes. The standard IgE (or an unknown murine serum sample) is diluted to between about 4 ng/ml-256 ng/ml in Hanks-HS (20 mM Hepes, 2% NBS in Hanks Balanced Salt Solution, Gibco, Grand Island, N.Y.) or to 1/200 to 1/1000 in Hanks-HS respectively. 100 μl of standard (or unknown dilutions) are added in triplicate to the wells of the plate and allowed to absorb to B1E3 antibody at about 37° C. for 2-4 hours. The solution is removed by flicking the plate and each well is washed with about 0.5 ml 0.05% Tween 20-PBS 5 times. About 100 μl of biotinylated R1E4, called the primary antibody, diluted to 200 ng/ml is added to all wells and incubated at about 4° C. overnight. The solution is removed by flicking the plate and washed 5 times as described above. The developing reagent (Avidin and biotin-horse radish peroxidase) is incubated in 2% NBS in PBS at ambient temperature for 30 minutes, according to manufacturer's specifications (Vector Laboratories, Burlingame, Calif.). About 100 μl of developing reagent is added to each well and incubated at ambient temperature for 30 minutes. Colorimetric substrate for the developing reagent (ABTS peroxidase substrate system, KPL, Gaithersburg, Md.) is prepared by mixing equal volumes of solutions A and B and incubating at ambient temperature for 60 minutes. The developing reagent solution is removed by flicking the plate and washed 5 times as described above. About 100 μl of the mixture of substrates is added to each well and incubated at ambient temperature for 60 minutes. The optical density of each well is determined on a BioTek ELISA reader (Biotek Instruments, Inc., Burlington, Vermont) and the absorbance data transferred electronically to a DEC VAX mainframe computer. A standard curve is fitted to the IgE standard optical densities using straight line, linear regression statistical fits. IgE in the unknown serum samples is determined by comparing the optical density of the unknown to the standard curve and multiplying that number by the dilution of serum used in the assay.\nStimulation of a transient serum IgE response in mouse with two monoclonal antibodies directed against IgD is carried out as follows.\nMouse hybridoma cells expressing either FF1-4D5 antibody or H∂Al antibody are thawed, established in culture, and incubated in CB6 F1 female mice as an ascites tumor and each immunoglobulin is purified from the ascites fluid as described above. […]", "data": [{"smiles": "CCCCC(C)(O)C/C=C/[C@H]1[C@H](O)CC(=O)[C@@H]1CCC1CC1CCC(=O)OC", "note": "(relative stereo) [(±) methyl 2-[2-[3R-3α-hydroxy-2β-(4-hydroxy-4-methyl-1E-octenyl)-5-oxo-1α-cyclopentyl]ethyl]cyclopropanepropanoate]", "values": [{"measurement": "de novo IgE synthesis", "result": "inhibit de novo IgE synthesis"}, {"measurement": "IgE ± SD", "result": "3034 ± 878", "unit": "ng/mL"}]}, {"smiles": "CCCCC(C)(O)C/C=C/[C@H]1[C@H](O)CC(=O)[C@@H]1CC1CC1CCCC(=O)OC", "note": "(relative stereo) [(±) methyl 2-[2-[3R-3α-hydroxy-2β-(4-hydroxy-4-methyl-1E-octenyl)-5-oxo-1α-cyclopentyl]methyl]cyclopropanebutanoate]", "values": [{"measurement": "de novo IgE synthesis", "result": "inhibit de novo IgE synthesis"}, {"measurement": "IgE ± SD", "result": "2750 ± 318", "unit": "ng/mL"}]}]}
